Assay results: ChEMBL document CHEMBL1158014, “Calamistrins A and B, two new cytotoxic monotetrahydrofuran annonaceous acetogenins from Uvaria calamistrata” (J Nat Prod, 1999)
≈ marks a conversion by molar mass, not a printed value.

Columns and labels:
Format in all cases: functional, cell-based
KB = assay: Cytotoxicity against human KB cells after 5 days by MTT assay; conditions: 120 h
A2780 = assay: Cytotoxicity against human A2780 cells after 5 days by MTT assay; conditions: A2780, 120 h
HCT-8 = assay: Cytotoxicity against human HCT8 cells after 5 days by MTT assay; conditions: HCT-8, 120 h

Structure (SMILES): CCCCCCCCCCCC[C@H](O)[C@H]1CC[C@H]([C@H](O)C[C@@H](O)CCCCCCCCCCCCC2=C[C@H](C)OC2=O)O1 [CALAMISTRIN A]
- IC50 (KB): 2 µg/mL (≈ 3.28 µM)
- IC50 (A2780): 1.4 µg/mL (≈ 2.3 µM)
- IC50 (HCT-8): 0.37 µg/mL (≈ 0.608 µM)

Structure (SMILES): CCCCCCCCCCCC[C@H](O)[C@H]1CC[C@H]([C@@H](C[C@H](O)CCCCCCCCCCCCC2=C[C@H](C)OC2=O)OC(C)=O)O1 [CALAMISTRIN B]
- IC50 (KB): 6.1 µg/mL (≈ 9.37 µM)
- IC50 (A2780): 3.1 µg/mL (≈ 4.76 µM)
- IC50 (HCT-8): 0.022 µg/mL (≈ 0.0338 µM)
